Results published in ChEMBL document CHEMBL3608228, “Bisacremines A-D, Dimeric Acremines Produced by a Soil-Derived Acremonium persicinum Strain” (J Nat Prod, 2015).
pIC50: −log10 of the molar value. Activity calls are given as the source filed them. The calls are words filed in the database; no cut-off is given here.

How the values were obtained:
HeLa = experiment: Cytotoxicity against human HeLa cells assessed as cell growth inhibition after 72 hrs by MTT assay; assay type: functional, cell-based
A549 = experiment: Cytotoxicity against human A549 cells assessed as cell growth inhibition after 72 hrs by MTT assay; assay type: functional, cell-based; conditions: A549, 72 h
HepG2 = experiment: Cytotoxicity against human HepG2 cells assessed as cell growth inhibition after 72 hrs by MTT assay; assay type: functional, cell-based; conditions: HepG2, 72 h
Staphylococcus aureus = experiment: Antibacterial activity against Staphylococcus aureus; assay type: functional, organism-based

Q: Which results are given for `Cc1ccc(/C=C/[C@@]2(C)CC[C@](C)(/C=C/C3=C[C@H](O)[C@](C)(O)C[C@@H]3O)O2)cc1`?
A: pIC50 (HeLa): 5.03; pIC50 (A549): 4.38; pIC50 (HepG2): 4.51; Activity (Staphylococcus aureus): inactive

Q: `Cc1ccc(/C=C/[C@]2(C)CC[C@@](C)(/C=C/C3=C[C@H](O)[C@](C)(O)C[C@@H]3O)O2)cc1` was tested. Which pIC50 (HeLa) did it give?
A: Its pIC50 is 4.97.

Q: And the pIC50 (A549)?
A: Its pIC50 is < 4.30.

Q: And the pIC50 (HepG2)?
A: Its pIC50 is < 4.30.

Q: And the Activity (Staphylococcus aureus)?
A: The Activity was “inactive”.

Q: With `Cc1ccc(/C=C/[C@]2(C)CC[C@](C)(/C=C/C3=C[C@H](O)[C@](C)(O)C[C@@H]3O)O2)cc1` as the molecule, how does the pIC50 (HeLa) read?
A: The pIC50 was 4.34.

Q: What about the pIC50 (A549) of the same molecule?
A: The pIC50 was < 4.30.

Q: What about the pIC50 (HepG2) of the same molecule?
A: The pIC50 was < 4.30.

Q: What about the Activity (Staphylococcus aureus) of the same molecule?
A: The Activity was “inactive”.

Q: `Cc1ccc(/C=C/[C@@]2(C)CC[C@@](C)(/C=C/C3=C[C@H](O)[C@](C)(O)C[C@@H]3O)O2)cc1` was tested. Which pIC50 (HeLa) did it give?
A: The pIC50 was 4.51.

Q: And the pIC50 (A549)?
A: The pIC50 was < 4.30.

Q: What about the pIC50 (HepG2) of the same molecule?
A: Its pIC50 is < 4.30.

Q: And the Activity (Staphylococcus aureus)?
A: The Activity was “inactive”.
